Test results published in US10973771B2, “Method of making particles for use in a pharmaceutical composition” (VECTURA LIMITED, priority 2000, dated 2021).

Experiment: Fine particle fraction, capsule fired from twin stage impinger (TSI)
Assay type: physicochemical
Conditions: 20mg capsule fired from a twin stage impinger
Description: The 3:1 and the 19:1 blends were then each loaded into a 20mg capsule and fired from a twin stage impinger. A sample of unprocessed salbutamol sulphate was also fired from the TSI to provide a comparison.

Question: For salbutamol sulphate, which “Fine Particle Fraction %” value is on record?
Answer: 28%
